Numbers after ± are expanded uncertainties.
Conditions: Liquid; for viscosity: Concentric cylinders viscometry

CC(=O)[O-].CCCCn1cc[n+](C)c1 [1-butyl-3-methylimidazolium acetate]
101.33 kPa
Conditions | viscosity [mPa·s]
293.15 K | 592.3 ± 33
303.15 K | 274.1 ± 14
313.15 K | 142.4 ± 6.9
323.15 K | 81.88 ± 3.9
333.15 K | 51.11 ± 2.4
343.15 K | 33.65 ± 1.6
353.15 K | 23.51 ± 1.1
363.15 K | 17.09 ± 0.8
373.15 K | 12.93 ± 0.6

Conditions | mass density [kg/m3]
293.15 K, 101.33 kPa, Vibrating tube method | 1053.8 ± 1
303.15 K, 101.33 kPa, Vibrating tube method | 1047.4 ± 1
311.4 K, 10000 kPa, Bellows volumetry | 1046.7 ± 1.4
311.4 K, 20000 kPa, Bellows volumetry | 1050.8 ± 1.4
311.4 K, 30000 kPa, Bellows volumetry | 1054.8 ± 1.4
311.4 K, 40000 kPa, Bellows volumetry | 1058.6 ± 1.4
311.4 K, 50000 kPa, Bellows volumetry | 1062.3 ± 1.4
311.4 K, 60000 kPa, Bellows volumetry | 1065.8 ± 1.4
311.4 K, 70000 kPa, Bellows volumetry | 1069.3 ± 1.4
311.4 K, 80000 kPa, Bellows volumetry | 1072.7 ± 1.4
311.4 K, 90000 kPa, Bellows volumetry | 1076 ± 1.4
311.4 K, 100000 kPa, Bellows volumetry | 1079 ± 1.4
311.4 K, 110000 kPa, Bellows volumetry | 1082.1 ± 1.4
311.4 K, 120000 kPa, Bellows volumetry | 1085.1 ± 1.4
311.4 K, 130000 kPa, Bellows volumetry | 1088.1 ± 1.4
311.4 K, 140000 kPa, Bellows volumetry | 1090.9 ± 1.4
311.4 K, 150000 kPa, Bellows volumetry | 1093.7 ± 1.4
311.4 K, 160000 kPa, Bellows volumetry | 1096.5 ± 1.4
311.4 K, 170000 kPa, Bellows volumetry | 1099.1 ± 1.4
311.4 K, 180000 kPa, Bellows volumetry | 1101.9 ± 1.4
311.4 K, 190000 kPa, Bellows volumetry | 1104.5 ± 1.4
311.4 K, 200000 kPa, Bellows volumetry | 1107.1 ± 1.4
313.15 K, 101.33 kPa, Vibrating tube method | 1041.4 ± 1
323.15 K, 101.33 kPa, Vibrating tube method | 1035.4 ± 1
331.1 K, 10000 kPa, Bellows volumetry | 1034.7 ± 1.4
331.1 K, 20000 kPa, Bellows volumetry | 1039.1 ± 1.4
331.1 K, 30000 kPa, Bellows volumetry | 1043.3 ± 1.4
331.1 K, 40000 kPa, Bellows volumetry | 1047.3 ± 1.4
331.1 K, 50000 kPa, Bellows volumetry | 1051.2 ± 1.4
331.1 K, 60000 kPa, Bellows volumetry | 1054.9 ± 1.4
331.1 K, 70000 kPa, Bellows volumetry | 1058.5 ± 1.4
331.1 K, 80000 kPa, Bellows volumetry | 1062.1 ± 1.4
331.1 K, 90000 kPa, Bellows volumetry | 1065.2 ± 1.4
331.1 K, 100000 kPa, Bellows volumetry | 1068.7 ± 1.4
331.1 K, 110000 kPa, Bellows volumetry | 1071.9 ± 1.4
331.1 K, 120000 kPa, Bellows volumetry | 1075 ± 1.4
331.1 K, 130000 kPa, Bellows volumetry | 1078.2 ± 1.4
331.1 K, 140000 kPa, Bellows volumetry | 1081.1 ± 1.4
331.1 K, 150000 kPa, Bellows volumetry | 1084 ± 1.4
331.1 K, 160000 kPa, Bellows volumetry | 1086.8 ± 1.4
331.1 K, 170000 kPa, Bellows volumetry | 1089.6 ± 1.4
331.1 K, 180000 kPa, Bellows volumetry | 1092.4 ± 1.4
331.1 K, 190000 kPa, Bellows volumetry | 1095.1 ± 1.4
331.1 K, 200000 kPa, Bellows volumetry | 1097.7 ± 1.4
333.15 K, 101.33 kPa, Vibrating tube method | 1029.5 ± 1
343.15 K, 101.33 kPa, Vibrating tube method | 1023.7 ± 1
351.3 K, 10000 kPa, Bellows volumetry | 1023.2 ± 1.4
351.3 K, 20000 kPa, Bellows volumetry | 1027.7 ± 1.4
351.3 K, 30000 kPa, Bellows volumetry | 1032.1 ± 1.4
351.3 K, 40000 kPa, Bellows volumetry | 1036.4 ± 1.4
351.3 K, 50000 kPa, Bellows volumetry | 1040.4 ± 1.4
351.3 K, 60000 kPa, Bellows volumetry | 1044.3 ± 1.4
351.3 K, 70000 kPa, Bellows volumetry | 1048 ± 1.4
351.3 K, 80000 kPa, Bellows volumetry | 1051.6 ± 1.4
351.3 K, 90000 kPa, Bellows volumetry | 1055 ± 1.4
351.3 K, 100000 kPa, Bellows volumetry | 1058.4 ± 1.4
351.3 K, 110000 kPa, Bellows volumetry | 1061.7 ± 1.4
351.3 K, 120000 kPa, Bellows volumetry | 1065 ± 1.4
351.3 K, 130000 kPa, Bellows volumetry | 1068.1 ± 1.4
351.3 K, 140000 kPa, Bellows volumetry | 1071.2 ± 1.4
351.3 K, 150000 kPa, Bellows volumetry | 1074.3 ± 1.4
351.3 K, 160000 kPa, Bellows volumetry | 1077.3 ± 1.4
351.3 K, 170000 kPa, Bellows volumetry | 1080.2 ± 1.4
351.3 K, 180000 kPa, Bellows volumetry | 1083 ± 1.4
351.3 K, 190000 kPa, Bellows volumetry | 1086 ± 1.4
351.3 K, 200000 kPa, Bellows volumetry | 1088.5 ± 1.4
353.15 K, 101.33 kPa, Vibrating tube method | 1017.9 ± 1
363.15 K, 101.33 kPa, Vibrating tube method | 1012 ± 1
371.3 K, 10000 kPa, Bellows volumetry | 1011.7 ± 1.4
371.3 K, 20000 kPa, Bellows volumetry | 1016.5 ± 1.4
371.3 K, 30000 kPa, Bellows volumetry | 1021.2 ± 1.4
371.3 K, 40000 kPa, Bellows volumetry | 1025.5 ± 1.4
371.3 K, 50000 kPa, Bellows volumetry | 1029.6 ± 1.4
371.3 K, 60000 kPa, Bellows volumetry | 1033.8 ± 1.4
371.3 K, 70000 kPa, Bellows volumetry | 1037.7 ± 1.4
371.3 K, 80000 kPa, Bellows volumetry | 1041.5 ± 1.4
371.3 K, 90000 kPa, Bellows volumetry | 1045 ± 1.4
371.3 K, 100000 kPa, Bellows volumetry | 1048.5 ± 1.4
371.3 K, 110000 kPa, Bellows volumetry | 1051.9 ± 1.4
371.3 K, 120000 kPa, Bellows volumetry | 1055.3 ± 1.4
371.3 K, 130000 kPa, Bellows volumetry | 1058.6 ± 1.4
371.3 K, 140000 kPa, Bellows volumetry | 1061.8 ± 1.4
371.3 K, 150000 kPa, Bellows volumetry | 1064.9 ± 1.4
371.3 K, 160000 kPa, Bellows volumetry | 1067.8 ± 1.4
371.3 K, 170000 kPa, Bellows volumetry | 1071 ± 1.4
371.3 K, 180000 kPa, Bellows volumetry | 1073.9 ± 1.4
371.3 K, 190000 kPa, Bellows volumetry | 1076.8 ± 1.4
371.3 K, 200000 kPa, Bellows volumetry | 1079.5 ± 1.4
373.15 K, 101.33 kPa, Vibrating tube method | 1006.1 ± 1
